Laboratory results from ChEMBL document CHEMBL5096191 (J Med Chem, 2021).

Legend:
Type in all cases: functional, cell-based
[1] = target: T1, Cannabinoid receptor 2 (Homo sapiens, UniProt P34972); assay: Partial agonist activity at wild type CB2 receptor (unknown origin) expressed in HEK293T assessed as increase in ERK1/2 phosphorylation incubated for 7 mins in presence of cannabidiol by AlphaScreenSureFire method
[2] = target: T2, Cannabinoid receptor 2 (Homo sapiens, UniProt P34972, A282M); assay: Partial agonist activity at CBR2 A2827.36M mutant (unknown origin) stably expressed in HEK293T assessed as decrease in forskolin induced cAMP level preincubated for 15 mins followed by forskolin addition incubated for 15 mins in presence of cannabidiol by HTRF assay
T2 sequence (P34972 whole entry A282M): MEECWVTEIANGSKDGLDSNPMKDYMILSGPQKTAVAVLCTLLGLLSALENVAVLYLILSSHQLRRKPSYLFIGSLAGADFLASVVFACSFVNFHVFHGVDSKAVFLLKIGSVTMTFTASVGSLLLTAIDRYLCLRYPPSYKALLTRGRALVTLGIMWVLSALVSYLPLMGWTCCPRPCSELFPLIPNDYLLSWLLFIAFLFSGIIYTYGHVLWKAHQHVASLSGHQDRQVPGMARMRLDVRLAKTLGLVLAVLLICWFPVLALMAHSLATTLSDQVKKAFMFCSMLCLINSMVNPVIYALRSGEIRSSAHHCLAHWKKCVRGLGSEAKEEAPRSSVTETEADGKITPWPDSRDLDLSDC

[3] = system: Cannabinoid receptor 2 (Homo sapiens), P34972 [A282M]; assay: Partial agonist activity at CBR2 A2827.36M mutant (unknown origin) expressed in HEK293T assessed as increase in picometer shifts of reflected light wavelengths in presence of cannabidiol by DMR assay relative to control; conditions: filed as partial agonist
Chain of Cannabinoid receptor 2 (Homo sapiens), P34972 [A282M] (P34972 whole entry A282M): as above

[4] = target: T3, Cannabinoid receptor 2 (Homo sapiens, UniProt P34972, S285L); assay: Partial agonist activity at CBR2 S2857.39L mutant (unknown origin) stably expressed in HEK293T assessed as decrease in forskolin induced cAMP level preincubated for 15 mins followed by forskolin addition incubated for 15 mins by HTRF assay
T3 sequence (P34972 whole entry S285L): as the sequence (P34972 whole entry A282M) above, with M282A, S285L counted along it

[5] = target: T2, Cannabinoid receptor 2; assay: Partial agonist activity at CBR2 A2827.36M mutant (unknown origin) expressed in HEK293T assessed as increase in ERK1/2 phosphorylation incubated for 7 mins in presence of cannabidiol by AlphaScreenSureFire method
[6] = target: T1, Cannabinoid receptor 2; assay: Partial agonist activity at wild type CB2 receptor (unknown origin) expressed in HEK293T assessed as increase in picometer shifts of reflected light wavelengths in presence of cannabidiol by DMR assay
[7] = target: T1, Cannabinoid receptor 2; assay: Partial agonist activity at wild type CB2 receptor (unknown origin) expressed in HEK293T assessed as increase in ERK1/2 phosphorylation incubated for 7 mins by AlphaScreenSureFire method
[8] = system: Cannabinoid receptor 2 (Homo sapiens), P34972 [V113M]; assay: Partial agonist activity at CBR2 V1133.32M mutant (unknown origin) stably expressed in HEK293T assessed as decrease in forskolin induced cAMP level preincubated for 15 mins followed by forskolin addition incubated for 15 mins by HTRF assay relative to control; conditions: filed as partial agonist, time 30.0 min
Chain of Cannabinoid receptor 2 (Homo sapiens), P34972 [V113M] (P34972 whole entry V113M): as the sequence (P34972 whole entry A282M) above, with V113M, M282A counted along it

[9] = target: T4, Cannabinoid receptor 2 (Homo sapiens, UniProt P34972, V36M); assay: Partial agonist activity at CBR2 V361.35M mutant (unknown origin) stably expressed in HEK293T assessed as decrease in forskolin induced cAMP level preincubated for 15 mins followed by forskolin addition incubated for 15 mins in presence of cannabidiol by HTRF assay
T4 sequence (P34972 whole entry V36M): as the sequence (P34972 whole entry A282M) above, with V36M, M282A counted along it

[10] = target: T4, Cannabinoid receptor 2; assay: Partial agonist activity at CBR2 V361.35M mutant (unknown origin) expressed in HEK293T assessed as increase in ERK1/2 phosphorylation incubated for 7 mins in presence of cannabidiol by AlphaScreenSureFire method
[11] = target: T4, Cannabinoid receptor 2; assay: Partial agonist activity at CBR2 V361.35M mutant (unknown origin) expressed in HEK293T assessed as increase in ERK1/2 phosphorylation incubated for 7 mins by AlphaScreenSureFire method
[12] = system: Cannabinoid receptor 2 (Homo sapiens), P34972 [V113M]; assay: Partial agonist activity at CBR2 V1133.32M mutant (unknown origin) expressed in HEK293T assessed as increase in ERK1/2 phosphorylation incubated for 7 mins in presence of cannabidiol by AlphaScreenSureFire method relative to control; conditions: filed as partial agonist
[13] = system: Cannabinoid receptor 2 (Homo sapiens), P34972 [A282M]; assay: Partial agonist activity at CBR2 A2827.36M mutant (unknown origin) expressed in HEK293T assessed as increase in ERK1/2 phosphorylation incubated for 7 mins by AlphaScreenSureFire method relative to control; conditions: filed as partial agonist
[14] = system: Cannabinoid receptor 2 (Homo sapiens), P34972 [V113M]; assay: Partial agonist activity at CBR2 V1133.32M mutant (unknown origin) expressed in HEK293T assessed as increase in picometer shifts of reflected light wavelengths in presence of cannabidiol by DMR assay relative to control; conditions: filed as partial agonist
[15] = target: T1, Cannabinoid receptor 2; assay: (§1) Positive allosteric modulation of JWH-133-induced agonist activity at wild type CB2 receptor (unknown origin) stably expressed in HEK293T cells assessed as inhibition of forskolin-stimulated cAMP levels preincubated for 15 mins followed by forskolin addition incubated for 15 mins by HTRF assay
[16] = system: Cannabinoid receptor 2 (Homo sapiens), P34972 [V36M]; assay: Partial agonist activity at CBR2 V361.35M mutant (unknown origin) stably expressed in HEK293T assessed as decrease in forskolin induced cAMP level preincubated for 15 mins followed by forskolin addition incubated for 15 mins by HTRF assay relative to control; conditions: filed as partial agonist, time 30.0 min
Chain of Cannabinoid receptor 2 (Homo sapiens), P34972 [V36M] (P34972 whole entry V36M): as the sequence (P34972 whole entry A282M) above, with V36M, M282A counted along it

[17] = target: T1, Cannabinoid receptor 2; assay: as §1, with “assay relative to control” for “assay”; conditions: filed as positive allosteric modulator, time 30.0 min
[18] = system: Cannabinoid receptor 2 (Homo sapiens), P34972 [A282M]; assay: Partial agonist activity at CBR2 A2827.36M mutant (unknown origin) stably expressed in HEK293T assessed as decrease in forskolin induced cAMP level preincubated for 15 mins followed by forskolin addition incubated for 15 mins in presence of cannabidiol by HTRF assay relative to control; conditions: filed as partial agonist, time 30.0 min
[19] = target: T3, Cannabinoid receptor 2; assay: Partial agonist activity at CBR2 S2857.39L mutant (unknown origin) expressed in HEK293T assessed as increase in ERK1/2 phosphorylation incubated for 7 mins by AlphaScreenSureFire method
[20] = system: Cannabinoid receptor 2 (Homo sapiens), P34972 [V36M]; assay: Partial agonist activity at CBR2 V361.35M mutant (unknown origin) expressed in HEK293T assessed as increase in picometer shifts of reflected light wavelengths by DMR assay relative to control; conditions: filed as partial agonist
[21] = system: Cannabinoid receptor 2 (Homo sapiens), P34972 [A282M]; assay: Partial agonist activity at CBR2 A2827.36M mutant (unknown origin) expressed in HEK293T assessed as increase in ERK1/2 phosphorylation incubated for 7 mins in presence of cannabidiol by AlphaScreenSureFire method relative to control; conditions: filed as partial agonist
[22] = target: T1, Cannabinoid receptor 2; assay: Partial agonist activity at wild type CB2 receptor (unknown origin) stably expressed in HEK293T assessed as decrease in forskolin induced cAMP level preincubated for 15 mins followed by forskolin addition incubated for 15 mins in presence of cannabidiol by HTRF assay relative to control; conditions: filed as partial agonist, time 30.0 min
[23] = target: T1, Cannabinoid receptor 2; assay: Partial agonist activity at wild type CB2 receptor (unknown origin) expressed in HEK293T assessed as increase in ERK1/2 phosphorylation incubated for 7 mins in presence of cannabidiol by AlphaScreenSureFire method relative to control; conditions: filed as partial agonist
[24] = system: Cannabinoid receptor 2 (Homo sapiens), P34972 [A282M]; assay: Partial agonist activity at CBR2 A2827.36M mutant (unknown origin) expressed in HEK293T assessed as increase in picometer shifts of reflected light wavelengths by DMR assay relative to control; conditions: filed as partial agonist
[25] = target: T3, Cannabinoid receptor 2; assay: Partial agonist activity at CBR2 S2857.39L mutant (unknown origin) expressed in HEK293T assessed as increase in ERK1/2 phosphorylation incubated for 7 mins in presence of cannabidiol by AlphaScreenSureFire method
[26] = system: Cannabinoid receptor 2 (Homo sapiens), P34972 [S285L]; assay: Partial agonist activity at CBR2 S2857.39L mutant (unknown origin) expressed in HEK293T assessed as increase in picometer shifts of reflected light wavelengths by DMR assay relative to control; conditions: filed as partial agonist
Chain of Cannabinoid receptor 2 (Homo sapiens), P34972 [S285L] (P34972 whole entry S285L): as the sequence (P34972 whole entry A282M) above, with M282A, S285L counted along it

[27] = target: T1, Cannabinoid receptor 2; assay: Partial agonist activity at wild type CB2 receptor (unknown origin) expressed in HEK293T assessed as increase in picometer shifts of reflected light wavelengths by DMR assay

T1 sequence (P34972 whole entry): as the sequence (P34972 whole entry A282M) above, with M282A counted along it

Question: `CCCC(C)(C)c1cc(O)c2c(c1)OC(C)(C)[C@@H]1CC=C(C)C[C@@H]21` was tested. Which EC50 [1] did it give?
Answer: 0.00794 µM

Question: What about the EC50 [2] of the same compound?
Answer: 0.00794 µM

Question: What about the Emax [3] of the same compound?
Answer: 189%

Question: What about the EC50 [4] of the same compound?
Answer: 0.0398 µM

Question: And the EC50 [5]?
Answer: 0.0126 µM

Question: And the EC50 [6]?
Answer: 0.631 µM

Question: What about the EC50 [7] of the same compound?
Answer: 0.00794 µM

Question: And the Emax [8]?
Answer: 72.5%

Question: And the EC50 [9]?
Answer: 0.0158 µM

Question: And the EC50 [10]?
Answer: 0.0398 µM

Question: What about the EC50 [11] of the same compound?
Answer: 0.0316 µM

Question: What about the Emax [12] of the same compound?
Answer: 216%

Question: What about the Emax [13] of the same compound?
Answer: 376%

Question: What about the Emax [14] of the same compound?
Answer: 71.9%

Question: And the EC50 [15]?
Answer: 0.0251 µM

Question: And the Emax [16]?
Answer: 56.7%

Question: And the Emax [17]?
Answer: 56%

Question: And the Emax [18]?
Answer: 48.8%

Question: And the EC50 [19]?
Answer: 0.0398 µM

Question: What about the Emax [20] of the same compound?
Answer: 193%

Question: And the Emax [21]?
Answer: 352%

Question: And the Emax [22]?
Answer: 57.8%

Question: And the Emax [23]?
Answer: 250%

Question: What about the Emax [24] of the same compound?
Answer: 199%

Question: And the EC50 [25]?
Answer: 0.0316 µM

Question: And the Emax [26]?
Answer: 223%

Question: And the EC50 [27]?
Answer: 0.631 µM
